Measurements: US7998965B2, “Glutamate aggrecanase inhibitors” (Wyeth LLC, priority 2005, dated 2011)

Each compound was assayed against T1, purified recombinant human Aggrecanase-1 (rAgg1) (Homo sapiens, UniProt O75173) (assay: In vitro fluorescence screen for Aggrecanase-1 inhibitors). Details: Table 1; @ 16,700 (nM).
T1 sequence (O75173 213-837): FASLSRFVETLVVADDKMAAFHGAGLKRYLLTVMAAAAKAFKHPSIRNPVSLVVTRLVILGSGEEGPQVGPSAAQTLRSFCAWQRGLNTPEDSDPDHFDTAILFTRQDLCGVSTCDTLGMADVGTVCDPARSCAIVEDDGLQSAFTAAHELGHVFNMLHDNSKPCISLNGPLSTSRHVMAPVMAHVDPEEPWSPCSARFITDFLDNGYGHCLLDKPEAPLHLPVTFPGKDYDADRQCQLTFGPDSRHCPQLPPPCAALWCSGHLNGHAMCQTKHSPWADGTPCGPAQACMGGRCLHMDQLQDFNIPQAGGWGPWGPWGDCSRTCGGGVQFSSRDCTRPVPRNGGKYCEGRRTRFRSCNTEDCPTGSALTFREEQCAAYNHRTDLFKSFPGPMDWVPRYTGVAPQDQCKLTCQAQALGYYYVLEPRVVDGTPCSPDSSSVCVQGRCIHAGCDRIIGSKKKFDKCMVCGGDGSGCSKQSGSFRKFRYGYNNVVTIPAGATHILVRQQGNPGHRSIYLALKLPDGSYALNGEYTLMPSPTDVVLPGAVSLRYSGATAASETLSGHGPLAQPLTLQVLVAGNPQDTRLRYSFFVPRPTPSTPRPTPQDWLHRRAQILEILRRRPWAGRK
Format: biochemical
For `CCOc1ccc(-c2ccc(C(=O)N[C@@H](CCC(=O)O)C(=O)NCc3ccccc3)cc2)cc1` [Example 14, N^1-benzyl-N^2-[(4′-ethoxy-1,1′-biphenyl-4-yl)carbonyl]-L-α-glutamine], the “Agg1 % @ concentration” value was 60% @.

Same assay, conditions: Table 1; read-out: Agg1 IC50
In the case of `O=C(O)CC[C@H](NC(=O)c1ccc(-c2ccccc2)cc1)C(=O)NCc1ccco1` [Example 8P, N^2-(1,1′-biphenyl-4-ylcarbonyl)-N^1-(2-furylmethyl)-L-α-glutamine], the IC50 is reported as 290 nM. With `CC(C)NC(=O)[C@H](CCC(=O)O)NC(=O)c1ccc(-c2ccccc2)cc1` [Example 8PPP, N^2-(biphenyl-4-ylcarbonyl)-N^1-isopropyl-L-α-glutamine] the IC50 was 130 nM. With `CCCCCCNC(=O)[C@H](CCC(=O)O)NC(=O)c1cccc2c1Cc1ccccc1-2` [Example 8PPPP, N^2-(9H-fluoren-1-ylcarbonyl)-N^1-hexyl-L-α-glutamine] the IC50 was > 50000 nM. With `COc1cccc(CNC(=O)[C@H](CCC(=O)O)NC(=O)Cc2ccc(-c3ccccc3)cc2)c1` [Example 8PPPPPP, N^2-(1,1′-biphenyl-4-ylacetyl)-N^1-(3-methoxybenzyl)-L-α-glutamine] the IC50 was > 33000 nM. Work on `O=C(O)CC[C@H](NC(=O)c1ccc(-c2ccccc2)cc1)C(=O)NCc1ccncc1` [Example 8QQQ, N^2-(biphenyl-4-ylcarbonyl)-N^1-(pyridin-4-ylmethyl)-L-α-glutamine] yielded an IC50 of 330 nM. `CCCCCCNC(=O)[C@H](CCC(=O)O)NC(=O)c1ccc(Oc2ccccc2)cc1` [Example 8QQQQ, N^1-hexyl-N^2-(4-phenoxybenzoyl)-L-α-glutamine] gave an IC50 of 9600 nM. `O=C(O)CC[C@H](NC(=O)c1ccc(-c2ccccc2)cc1)C(=O)Nc1ccccc1Cc1ccccc1` [Example 8QQQQQQ, N^1-(2-benzylphenyl)-N^2-(1,1′-biphenyl-4-ylcarbonyl)-L-α-glutamine] gave an IC50 of 690 nM. Compound `CCCCCCNC(=O)[C@H](CCC(=O)O)NC(=O)c1ccc2c(c1)C(=O)c1ccccc1-2` [Example 8RRRR, N^1-hexyl-N^2-[(9-oxo-9H-fluoren-2-yl)carbonyl]-L-α-glutamine] has an IC50 of 122 nM. With `O=C(O)CC[C@H](NC(=O)c1ccc2ccccc2c1)C(=O)NCCCc1ccccc1` [Example 8RRRRRR, N^2-2-naphthoyl-N^1-(3-phenylpropyl)-L-α-glutamine] the IC50 was 3600 nM. In the case of `O=C(O)CC[C@H](NC(=O)c1ccc(C(=O)c2ccccc2)cc1)C(=O)NCc1ccccc1` [Example 8SSSS, N^2-(4-benzoylbenzoyl)-N^1-benzyl-L-α-glutamine], the IC50 is reported as > 200000 nM. For `O=C(O)CC[C@H](NC(=O)c1ccc2c(c1)C(=O)c1ccccc1-2)C(=O)NCCCc1ccccc1` [Example 8SSSSSS, N^2-[(9-oxo-9H-fluoren-2-yl)carbonyl]-N^1-(3-phenylpropyl)-L-α-glutamine], the IC50 was 146 nM. `O=C(O)CC[C@H](NC(=O)c1ccc(-c2ccccc2)cc1)C(=O)NCCc1ccccc1F` [Example 8TT, N^2-(biphenyl-4-ylcarbonyl)-N^1-[2-(2-fluorophenyl)ethyl]-L-α-glutamine] gave an IC50 of 300 nM. For `CC(C)(NC(=O)[C@H](CCC(=O)O)NC(=O)c1ccc(-c2ccccc2)cc1)c1ccccc1` [Example 8TTT, N^2-(biphenyl-4-ylcarbonyl)-N^1-(1-methyl-1-phenylethyl)-L-α-glutamine], the IC50 was > 10000 nM. `O=C(O)CC[C@H](NC(=O)c1ccc(Oc2ccccc2)cc1)C(=O)NCCCc1ccccc1` [Example 8TTTTTT, N^2-(4-phenoxybenzoyl)-N^1-(3-phenylpropyl)-L-α-glutamine] showed an IC50 of 17300 nM. With `O=C(O)CC[C@H](NC(=O)c1ccc(-c2ccccc2)cc1)C(=O)NCCc1ccc(Cl)cc1` [Example 8UU, N^2-(biphenyl-4-ylcarbonyl)-N^1-[2-(4-chlorophenyl)ethyl]-L-α-glutamine] the IC50 was 200 nM. `O=C(O)CC[C@H](NC(=O)c1ccc(Nc2ncccn2)cc1)C(=O)NCc1ccccc1` [Example 8UUUUUU, N^1-benzyl-N^2-[4-(pyrimidin-2-ylamino)benzoyl]-L-α-glutamine] gave an IC50 of 4000 nM. `O=C(O)CC[C@H](NC(=O)c1ccc2c(c1)Cc1ccccc1-2)C(=O)NCCCCCCO` [Example 8VVVVVV, N^2-(9H-fluoren-2-ylcarbonyl)-N^1-(6-hydroxyhexyl)-L-α-glutamine] gave an IC50 of 46 nM. With `O=C(O)CC[C@H](NC(=O)c1ccc(-c2ccccc2)cc1)C(=O)NCc1cccc(F)c1` [Example 8XX, N^2-(1,1′-biphenyl-4-ylcarbonyl)-N^1-(3-fluorobenzyl)-L-α-glutamine] the IC50 was 300 nM. Compound `O=C(O)CC[C@H](NC(=O)c1ccc(-c2ccccc2)cc1)C(=O)NCc1ccccc1F` [Example 8ZZ, N^2-(1,1′-biphenyl-4-ylcarbonyl)-N^1-(2-fluorobenzyl)-L-α-glutamine] has an IC50 of 210 nM. `O=Cc1ccc(-c2ccc(CCNC(=O)[C@H](CCC(=O)O)NC(=O)c3ccc(-c4ccccc4)cc3)cc2)cc1` [Example 9, N^2-(biphenyl-4-ylcarbonyl)-N^1-[2-(4′-formylbiphenyl-4-yl)ethyl]-L-α-glutamine] gave an IC50 of 200 nM. Compound `COc1ccc(-c2ccc(CCNC(=O)[C@H](CCC(=O)O)NC(=O)c3ccc(-c4ccccc4)cc3)cc2)cc1` [Example 10B, N^2-(biphenyl-4-ylcarbonyl)-N^1-[2-(4′-methoxybiphenyl-4-yl)ethyl]-L-α-glutamine] has an IC50 of 150 nM. Work on `CCOc1ccccc1-c1ccc(CCNC(=O)[C@H](CCC(=O)O)NC(=O)c2ccc(-c3ccccc3)cc2)cc1` [Example 10E, N^2-(biphenyl-4-ylcarbonyl)-N^1-[2-(2′-ethoxybiphenyl-4-yl)ethyl]-L-α-glutamine] yielded an IC50 of 370 nM. Compound `O=C(O)CC[C@H](NC(=O)c1ccc(-c2ccccc2)cc1)C(=O)NCCc1ccc(-c2ccncc2)cc1` [Example 10H, N^2-(biphenyl-4-ylcarbonyl)-N^1-[2-(4-pyridin-4-ylphenyl)ethyl]-L-α-glutamine] has an IC50 of 300 nM. `O=C(O)CC[C@H](NC(=O)c1ccc(-c2ccccc2)cc1)C(=O)NCCc1cccc(-c2ccccn2)c1` [Example 10I, N^2-(biphenyl-4-ylcarbonyl)-N^1-[2-(3-pyridin-2-ylphenyl)ethyl]-L-α-glutamine] showed an IC50 of 320 nM. `O=Cc1ccc(-c2cccc(CCNC(=O)[C@H](CCC(=O)O)NC(=O)c3ccc(-c4ccccc4)cc3)c2)cc1` [Example 10J, N^2-(biphenyl-4-ylcarbonyl)-N^1-[2-(4′-formylbiphenyl-3-yl)ethyl]-L-α-glutamine] gave an IC50 of 260 nM. `O=C(O)CC[C@H](NC(=O)c1ccc(-c2ccccc2)cc1)C(=O)NCc1cccc(-c2ccc(C(F)(F)F)cc2)c1` [Example 10O, N^2-(biphenyl-4-ylcarbonyl)-N^1-{[4′-(trifluoromethyl)biphenyl-3-yl]methyl}-L-α-glutamine] was tested, and the IC50 was 470 nM. With `C#Cc1ccc(-c2cccc(CNC(=O)[C@H](CCC(=O)O)NC(=O)c3ccc(-c4ccccc4)cc3)c2)cc1` [Example 10P, N^2-(biphenyl-4-ylcarbonyl)-N^1-[(4′-ethynylbiphenyl-3-yl)methyl]-L-α-glutamine] the IC50 was 700 nM. For `C#Cc1ccc(-c2ccc(C(=O)N[C@@H](CCC(=O)O)C(=O)NCc3ccccc3)cc2)cc1` [Example 12B, N^1-benzyl-N^2-[(4′-ethynyl-1,1′-biphenyl-4-yl)carbonyl]-L-α-glutamine], the IC50 was 35000 nM. In the case of `O=C(O)CC[C@H](NC(=O)c1ccc(-c2cccnc2)cc1)C(=O)NCc1ccccc1` [Example 12C, N^1-benzyl-N^2-(4-pyridin-3-ylbenzoyl)-L-α-glutamine], the IC50 is reported as 25000 nM. `O=C(O)CC[C@H](NC(=O)c1ccc(-c2nccs2)cc1)C(=O)NCc1ccccc1` [Example 12D, N^1-benzyl-N^2-[4-(1,3-thiazol-2-yl)benzoyl]-L-α-glutamine] was tested, and the IC50 was > 100000 nM. Compound `O=C(O)CC[C@H](NC(=O)c1ccc(-c2ccccn2)cc1)C(=O)NCc1ccccc1` [Example 12E, N^1-benzyl-N^2-(4-pyridin-2-ylbenzoyl)-L-α-glutamine] has an IC50 of 1800 nM. Work on `Cc1ccc(C)c(-c2ccc(C(=O)N[C@@H](CCC(=O)O)C(=O)NCc3ccccc3)cc2)c1` [Example 13B, N^1-benzyl-N^2-[(2′,5′-dimethyl-1,1′-biphenyl-4-yl)carbonyl]-L-α-glutamine] yielded an IC50 of ~50000 nM. `CCc1ccc(-c2ccc(C(=O)N[C@@H](CCC(=O)O)C(=O)NCc3ccccc3)cc2)cc1` [Example 13C, N^1-benzyl-N^2-[(4′-ethyl-1,1′-biphenyl-4-yl)carbonyl]-L-α-glutamine] showed an IC50 of 9600 nM. `CCOc1ccccc1-c1ccc(C(=O)N[C@@H](CCC(=O)O)C(=O)NCc2ccccc2)cc1` [Example 13E, N^1-benzyl-N^2-[(2′-ethoxy-1,1′-biphenyl-4-yl)carbonyl]-L-α-glutamine] was tested, and the IC50 was ~25000 nM. `Cc1cccc(C)c1-c1ccc(C(=O)N[C@@H](CCC(=O)O)C(=O)NCc2ccccc2)cc1` [Example 13F, N^1-benzyl-N^2-[(2′,6′-dimethyl-1,1′-biphenyl-4-yl)carbonyl]-L-α-glutamine] was tested, and the IC50 was ~200 nM. For `C=Cc1ccc(-c2ccc(C(=O)N[C@@H](CCC(=O)O)C(=O)NCc3ccccc3)cc2)cc1` [Example 13G, N^1-benzyl-N^2-[(4′-vinyl-1,1′-biphenyl-4-yl)carbonyl]-L-α-glutamine], the IC50 was ~2500 nM. With `CCCOc1ccc(-c2ccc(C(=O)N[C@@H](CCC(=O)O)C(=O)NCc3ccccc3)cc2)cc1` [Example 15A, N^1-benzyl-N^2-[(4′-propoxy-1,1′-biphenyl-4-yl)carbonyl]-L-α-glutamine] the IC50 was > 22000 nM.
